Source: the NIST ThermoML archive (doi:10.1016/j.fluid.2015.05.002)
Numbers after ± are expanded uncertainties.

Settings: Liquid; for mass density: 295 K, 101.33 kPa, Vibrating tube method; for vapor or sublimation pressure: Closed cell (Static) method

CC1CCCO1 (stereo not given) [2-methyltetrahydrofuran]
mass density: 851.6 ± 0.2 kg/m3
vapor or sublimation pressure (368.95 K): 163 ± 1 kPa
vapor or sublimation pressure (372.89 K): 181 ± 1 kPa
vapor or sublimation pressure (377.88 K): 207 ± 1 kPa
vapor or sublimation pressure (382.89 K): 237 ± 1 kPa
vapor or sublimation pressure (387.86 K): 268 ± 1 kPa
vapor or sublimation pressure (392.93 K): 304 ± 1 kPa
vapor or sublimation pressure (398.03 K): 344 ± 1 kPa
vapor or sublimation pressure (403.02 K): 386 ± 1 kPa
vapor or sublimation pressure (408.05 K): 432 ± 1 kPa
vapor or sublimation pressure (413.07 K): 483 ± 1 kPa
vapor or sublimation pressure (418.08 K): 538 ± 1 kPa
vapor or sublimation pressure (423.11 K): 597 ± 2 kPa
vapor or sublimation pressure (428.18 K): 661 ± 2 kPa
vapor or sublimation pressure (433.16 K): 730 ± 2 kPa
vapor or sublimation pressure (438.19 K): 804 ± 2 kPa
vapor or sublimation pressure (443.19 K): 883 ± 2 kPa
vapor or sublimation pressure (448.17 K): 968 ± 2 kPa
vapor or sublimation pressure (453.22 K): 1060 ± 2 kPa
vapor or sublimation pressure (458.19 K): 1157 ± 2 kPa
vapor or sublimation pressure (463.25 K): 1262 ± 3 kPa
vapor or sublimation pressure (468.25 K): 1372 ± 3 kPa
vapor or sublimation pressure (473.2 K): 1489 ± 3 kPa
vapor or sublimation pressure (483.25 K): 1746 ± 3 kPa
vapor or sublimation pressure (493.28 K): 2035 ± 4 kPa
vapor or sublimation pressure (503.24 K): 2358 ± 4 kPa
vapor or sublimation pressure (508.21 K): 2532 ± 5 kPa

Cc1ccco1 [2-methylfuran]
mass density: 916.7 ± 0.4 kg/m3
vapor or sublimation pressure (353.1 K): 167 ± 1 kPa
vapor or sublimation pressure (358.07 K): 194 ± 1 kPa
vapor or sublimation pressure (363.06 K): 224 ± 1 kPa
vapor or sublimation pressure (368.02 K): 257 ± 1 kPa
vapor or sublimation pressure (372.97 K): 294 ± 2 kPa
vapor or sublimation pressure (377.98 K): 334 ± 2 kPa
vapor or sublimation pressure (382.99 K): 379 ± 2 kPa
vapor or sublimation pressure (387.96 K): 427 ± 2 kPa
vapor or sublimation pressure (392.97 K): 480 ± 2 kPa
vapor or sublimation pressure (397.93 K): 538 ± 2 kPa
vapor or sublimation pressure (402.98 K): 600 ± 2 kPa
vapor or sublimation pressure (407.95 K): 670 ± 3 kPa
vapor or sublimation pressure (412.96 K): 743 ± 3 kPa
vapor or sublimation pressure (417.96 K): 823 ± 3 kPa
vapor or sublimation pressure (422.94 K): 909 ± 3 kPa
vapor or sublimation pressure (427.97 K): 1001 ± 4 kPa
vapor or sublimation pressure (432.93 K): 1099 ± 4 kPa
vapor or sublimation pressure (437.97 K): 1206 ± 4 kPa
vapor or sublimation pressure (442.93 K): 1319 ± 5 kPa
vapor or sublimation pressure (447.95 K): 1442 ± 5 kPa
vapor or sublimation pressure (452.97 K): 1571 ± 6 kPa
vapor or sublimation pressure (457.97 K): 1710 ± 6 kPa
vapor or sublimation pressure (462.96 K): 1856 ± 7 kPa
vapor or sublimation pressure (467.96 K): 2013 ± 7 kPa
vapor or sublimation pressure (472.97 K): 2179 ± 8 kPa
vapor or sublimation pressure (482.96 K): 2541 ± 9 kPa
vapor or sublimation pressure (492.93 K): 2947 ± 10 kPa
vapor or sublimation pressure (502.93 K): 3403 ± 12 kPa
vapor or sublimation pressure (507.92 K): 3651 ± 13 kPa

CC(C)CC(C)(C)C [2,2,4-trimethylpentane]
mass density: 690.4 ± 0.2 kg/m3
vapor or sublimation pressure (388.02 K): 163 ± 1 kPa
vapor or sublimation pressure (392.98 K): 184 ± 1 kPa
vapor or sublimation pressure (398.09 K): 208 ± 1 kPa
vapor or sublimation pressure (403.09 K): 233 ± 1 kPa
vapor or sublimation pressure (408.08 K): 262 ± 1 kPa
vapor or sublimation pressure (413.12 K): 293 ± 1 kPa
vapor or sublimation pressure (418.11 K): 326 ± 1 kPa
vapor or sublimation pressure (423.15 K): 362 ± 1 kPa
vapor or sublimation pressure (428.13 K): 401 ± 1 kPa
vapor or sublimation pressure (433.09 K): 442 ± 1 kPa
vapor or sublimation pressure (438.15 K): 488 ± 1 kPa
vapor or sublimation pressure (443.1 K): 536 ± 1 kPa
vapor or sublimation pressure (448.13 K): 589 ± 1 kPa
vapor or sublimation pressure (453.09 K): 644 ± 1 kPa
vapor or sublimation pressure (458.11 K): 704 ± 2 kPa
vapor or sublimation pressure (463.05 K): 769 ± 2 kPa
vapor or sublimation pressure (468.08 K): 837 ± 2 kPa
vapor or sublimation pressure (473.08 K): 911 ± 2 kPa
vapor or sublimation pressure (483.1 K): 1072 ± 2 kPa
vapor or sublimation pressure (493.14 K): 1255 ± 2 kPa
vapor or sublimation pressure (503.18 K): 1459 ± 2 kPa
vapor or sublimation pressure (508.17 K): 1571 ± 3 kPa
